Results as given in US10981957B2, “Peptides having antimicrobial activity and new enzyme capable of converting L-configured residue in D-configured amino acid in a peptide” (INSTITUT NATIONAL DE RECHERCHE POUR L'AGRICULTURE, …, priority 2015, dated 2021).
Like-named read-outs stand apart in the source and are kept apart here. Square brackets hold non-standard residues; d marks the D form. Ends that are not written are not given here. Peptide text beside a SMILES is read from it. d(aIle) = CC[C@H](C)[C@@H](N)C(=O)O

Assays:
B. subtilis [1] = format: cell-based, Bacillus subtilis; conditions: for Growth of B. subtilis in liquid LB medium: OD at 600 nm, FIG. 5B, FIG. 8a
Description: (§1) FIG. 5—Activity of YydF18-49 of YydG. (FIG. 5A) Plate growth inhibition assay of B. subtilis in the presence of YydF18-49 or the epimierized product YydFb. (FIG. 5B) Growth of Bacillus subtilis in LB medium in the absence of peptide (□) or in the presence of the YydF18-49 peptide with a free C-terminus: Ac-[…] (SEQ ID No 20) containing either no modification (▪), a D-allo-lle (♦), a D-Val (⋄) or two-epimerized residues: Ac-GLLDESQKLAKVNDLWYF{d-V}KSKENRW{d-I}LGSGH (SEQ ID No 20) (▴). The OD values are the means of 3 independent cultures.
FIG. 8—(A) Growth of B. subtilis in liquid LB medium in the presence of YydF33-49 or YydF33-49DD. B. subtilis was grown in LB medium alone (♦), in the presence of YydF33-49 (□) (SEQ ID NO: 76, top) or YydF33-49DD (▪) (SEQ ID NO: 75, bottom). Each measurement is the mean of three growth experiments with the SD indicated. The epimerized residues are in black. (b) Growth ratio of B. subtilis in presence of YydF18-49 (100 μM) or YydF18-49DD (100, 10 or 1 μM). Ratios were determined by comparison with growth in the absence of peptide. (c) Growth ratio of B. subtilis in presence of YydF33-49 or YydF33-49DD (100, 10, 1, 0.1 or 0.01 μM). Ratios were determined by comparison with bacterial growth in the absence of peptide.
FIG. 9—Growth of B. subtilis in liquid LB medium in the presence of YydF18-49 (□) or after addition (arrow) of the YydF18-49DD (▪) after 3 hours of growth. Each measurement is the mean of three growth experiments with the SD indicated.
FIG. 10—Growth of B. subtilis in liquid LB medium in the presence of […] (a), YydF33_49AA (b) (SEQ ID NO: 66), YydF33_49vv (c) (SEQ ID NO: 67), YydF33_49II (d) (SEQ ID NO: 68), Peptide-SA1 (e) (SEQ ID NO: 62), Peptide-SA2 (f) (SEQ ID NO: 63), Peptide-SE (g) (SEQ ID NO: 64) or Peptide-SP (h) (SEQ ID NO: 65) at 100 μM. In bold, epimerized residues.
(§2) Inhibition Assay on Liquid Medium
(§3) An overnight culture of the bacterial strain to be assayed was freshly inoculated to sterile LB liquid medium. After 4 hours of bacterial growth at 37° C., the medium was diluted to 1/10,000 and inoculated into sterile liquid LB or BHI medium. Peptide solution was added ( 1/100) to a final concentration ranging from 0.01 to 100 μM and OD at 600 nm was recorded continuously using a Tecan microplate reader (Infinite® 200 PRO series).

Streptococcus agalactiae = test: Inhibition assay on liquid medium, Streptococcus agalactiae in BHI medium; format: cell-based; conditions: peptide at 100 μM; FIG. 12
Method: (§4) FIG. 12—Growth of Streptococcus agalactiae in liquid BHI medium in the presence of YydF33-49 (a), YydF33_49AA (b) (SEQ ID NO: 66), YydF33_49VV (c) (SEQ ID NO: 67), YydF33_49II (d) (SEQ ID NO: 68), Peptide-SA1 (e) (SEQ Ill NO: 62), Peptide-SA2 (f) (SEQ ID NO: 63), Peptide-SE (g) (SEQ ID NO: 64) or Peptide-SP (h) (SEQ ID NO: 65) at 100 μM. In bold, epimerized residues.
as §2, §3

B. subtilis [2] = test: Inhibition assay on solid medium (plate growth inhibition assay); format: cell-based, Bacillus subtilis; conditions: 200 μg of peptide spotted, 37° C., FIG. 5A
Description: as §1
Inhibition Assay on Solid Medium
An overnight culture of the bacterial strain to be assayed was freshly inoculated to sterile BHI liquid medium. After 4 hours of bacterial growth at 37° C., the medium was diluted to 1/1000 and inoculated into a soft agarose medium pre-heated at 42° C. The agarose medium containing bacteria was overlaid on a previously jellified sterile BHI agarose layer. 200 μg of peptide was spotted onto the plate and bacterial growth proceeded at 37° C.

Enterococcus faecalis = test: Inhibition assay on liquid medium, Enterococcus faecalis in BHI medium; format: cell-based; conditions: peptide at 100 μM; FIG. 11
Method: as §4, with “11—Growth” for “12—Growth”, “Enterococcus faecalis” for “Streptococcus agalactiae”, “ID” for “Ill”
as §2, §3

Compound	Growth of B. subtilis in liquid LB medium (B. subtilis [1])	Growth of Streptococcus agalactiae in liquid BHI medium (Streptococcus agalactiae)	Growth of Enterococcus faecalis in liquid BHI medium (Enterococcus faecalis)	other results
CC[C@H](C)[C@@H](NC(=O)[C@H](Cc1c[nH]c2ccccc12)NC(=O)[C@H](CCCNC(=N)N)NC(=O)[C@H](CC(N)=O)NC(=O)[C@H](CCC(=O)O)NC(=O)[C@H](CCCCN)NC(=O)[C@H](CO)NC(=O)[C@H](CCCCN)NC(=O)[C@H](NC(=O)[C@H](Cc1ccccc1)NC(=O)[C@H](Cc1ccc(O)cc1)NC(=O)[C@@H](N)Cc1c[nH]c2ccccc12)C(C)C)C(=O)N[C@@H](CC(C)C)C(=O)NCC(=O)N[C@@H](CO)C(=O)NCC(=O)N[C@@H](Cc1c[nH]cn1)C(=O)O [YydF33-49DD] (H-WYF[dV]KSKENRW[d(aIle)]LGSGH-OH; N-terminus and C-terminus assumed)	inhibit bacterial growth	inhibited	–	MIC (B. subtilis [1]): < 1 µM
Ac-GLLDESQKLAKVNDLWYFVKSKENRWILGSGH [YydF18-49]	–	–	–	inhibition growth of B. subtilis (plate growth inhibition assay) (B. subtilis [2]): devoid of activity; cell density after addition of peptide at mid-exponential phase (B. subtilis [1]; B. subtilis, liquid LB medium, peptide added after 3 hours of growth, FIG. 9): a clear slow down followed by a decrease of the cell density
Ac-GLLDESQKLAKVNDLWYF{d-V}KSKENRW{d-I}LGSGH [YydF18-49DD]	bacterial growth inhibition	–	–	inhibition growth of B. subtilis (plate growth inhibition assay) (B. subtilis [2]): strong inhibition growth; Growth of B. subtilis in liquid LB medium (B. subtilis [1]; listed as epimerized peptide): strong and persistent inhibition
WYFAKSKENRWALGSGH (YydF33_49AA)	–	inhibited	totally inhibited	–
WYFIKSKENRWILGSGH (also: epimerized D-residues, positions not given here) [YydF33-49II]	–	not	–	–
WYFVKSKENRWILGSGH [YydF33-49]	Only the YYdF33-49DD peptide proved to inhibit bacterial growth	–	–	–
WYFVKSKENRWVLGSGH (also: epimerized D-residues, positions not given here) [YydF33-49VV]	–	inhibited	–	–
WYFVKSKQNRWVVGSGH (Peptide-SE)	–	inhibitors	totally inhibited	–
WYFVRNSKNRWVAGSAH (Peptide-SA2)	–	inhibitors	significantly delayed	–
WYFVRSSKNRWVAGSAH (Peptide-SA1)	–	inhibitors	significantly delayed	–
